Compound `CCCCN(CCCC)CC(=O)NC1COc2cc(OC)ccc21` (stereo not drawn) has a logP of 4.24.
Work on `CCN(CC)CC(=O)NC1COc2ccc(C)cc21` (stereo not drawn) yielded a logP of 2.69.
For `O=C(CN1CCCC1)NC1COc2ccccc21` (stereo not drawn), the logP was 1.76.
Compound `O=C(CN1CCCC1)NC1COc2ccc(Cl)cc21` (stereo not drawn) has a logP of 2.47.
With `O=C(CN1CCOCC1)NC1COc2ccccc21` (stereo not drawn) the logP was 0.81.
Compound `CCCCN(CCCC)CC(=O)NC1COc2ccccc21` (stereo not drawn) has a logP of 4.15.
Work on `Cc1ccc2c(c1)C(NC(=O)CN1CCCC1)CO2` (stereo not drawn) yielded a logP of 2.24.
`CCN(CC)CC(=O)NC1COc2ccccc21` (stereo not drawn) showed a logP of 2.2.
`CCCCN(CCCC)CC(=O)NC1COc2ccc(Cl)cc21` (stereo not drawn) showed a logP of 4.44.
With `Cc1ccc2c(c1)C(NC(=O)CN1CCCCC1)CO2` (stereo not drawn) the logP was 2.78.
`CCN(CC)CC(=O)NC1COc2ccc(Cl)cc21` (stereo not drawn) gave a logP of 2.88.
For `O=C(CN1CCOCC1)NC1COc2ccc(Cl)cc21` (stereo not drawn), the logP was 1.55.
`O=C(CN1CCCCC1)NC1COc2ccccc21` (stereo not drawn) showed a logP of 2.3.
Work on `O=C(CN1CCCCC1)NC1COc2ccc(Cl)cc21` (stereo not drawn) yielded a logP of 3.01.
Work on `COc1ccc2c(c1)OCC2NC(=O)CN1CCCCC1` (stereo not drawn) yielded a logP of 2.41.
`Cc1ccc2c(c1)C(NC(=O)CN1CCOCC1)CO2` (stereo not drawn) gave a logP of 1.38.
Work on `COc1ccc2c(c1)OCC2NC(=O)CN1CCOCC1` (stereo not drawn) yielded a logP of 0.92.
With `CCCCN(CCCC)CC(=O)NC1COc2ccc(C)cc21` (stereo not drawn) the logP was 4.43.
